# Source: US10131652B2, “Pyrimidinyloxy benzene derivatives as herbicides” (E. I. DU PONT DE NEMOURS AND COMPANY, priority 2014, dated 2018)
# Where two headings read alike, the source gives them in different places.
# Columns and labels:
# Experiment in all cases: Test E pre-/postemergence plant response
# Type in all cases: in vivo
# [1] = system: speedwell (bird's-eye speedwell, Veronica persica); details: scale 0 to 100, read-out: Plant response rating, Speedwell; for pest or weed control at 16 g/ha: 16 g ai/ha; for pest or weed control at 62 g/ha: 62 g ai/ha; for pest or weed control at 125 g/ha: 125 g ai/ha
# Text: (§1) Seeds of plant species selected from bluegrass (annual bluegrass, Poa annua), blackgrass (Alopecurus myosuroides), canarygrass (Phalaris minor), chickweed (common chickweed, Stellaria media), galium (catchweed bedstraw, Galium aparine), downy bromegrass (Bromus tectorum), field poppy (Papaver rhoeas), field violet (Viola arvensis), green foxtail (Setaria viridis), deadnettle (henbit deadnettle, Lamium amplexicaule), Italian ryegrass (Lolium multiflorum), kochia (Kochia scoparia), lambsquarters (Chenopodium album), oilseed rape (Brassica napus), pigweed (Amaranthus retroflexus), Russian thistle (Salsola iberica), chamomile (scentless chamomile, Matricaria inodora), speedwell (bird's-eye speedwell, Veronica persica), spring barley (Hordeum vulgare), spring wheat (Triticum aestivum), wild buckwheat (Polygonum convolvulus), wild mustard (Sinapis arvensis), wild oat (Avena fatua), wild radish (Raphanus raphanistrum), windgrass (Apera spica-venti), winter barley (Hordeum vulgare), and winter wheat (Triticum aestivum) were planted into a silt loam soil and treated preemergence with test chemicals formulated in a non-phytotoxic solvent mixture which included a surfactant. At the same time, these species were planted in pots containing Redi-Earth® planting medium (Scotts Company, 14111 Scottslawn Road, Marysville, Ohio 43041) comprising spaghnum peat moss, vermiculite, wetting agent and starter nutrients and treated with postemergence applications of the test chemicals formulated in the same manner. Plants ranged in height from 2 to 18 cm (1- to 4-leaf stage).
# (§2) Treated plants and controls were maintained in a controlled growth environment for 7 to 21 days after which time all species were compared to controls and visually evaluated. Plant response ratings, summarized in Table E, are based on a scale of 0 to 100 where 0 is no effect and 100 is complete control. A dash (-) response means no test result.
# [2] = system: oilseed rape (Brassica napus); details: scale 0 to 100, read-out: Plant response rating, Oilseed Rape; for plant injury at 16 g/ha: 16 g ai/ha; for plant injury at 31 g/ha: 31 g ai/ha; for plant injury at 62 g/ha: 62 g ai/ha; for plant injury at 125 g/ha: 125 g ai/ha
# Text: as §1, §2
# [3] = system: green foxtail (Setaria viridis); details: scale 0 to 100, read-out: Plant response rating, Foxtail, Green; for pest or weed control at 16 g/ha: 16 g ai/ha; for pest or weed control at 31 g/ha: 31 g ai/ha; for pest or weed control at 62 g/ha: 62 g ai/ha; for pest or weed control at 125 g/ha: 125 g ai/ha
# Text: as §1, §2
# [4] = system: wild mustard (Sinapis arvensis); details: Brassica, scale 0 to 100, read-out: Plant response rating, Mustard, Wild; for pest or weed control at 16 g/ha: 16 g ai/ha; for pest or weed control at 31 g/ha: 31 g ai/ha; for pest or weed control at 62 g/ha: 62 g ai/ha; for pest or weed control at 125 g/ha: 125 g ai/ha
# Text: as §1, §2
# [5] = system: wild buckwheat (Polygonum convolvulus); details: Fallopia convolvulus, scale 0 to 100, read-out: Plant response rating, Buckwheat, Wild; for pest or weed control at 16 g/ha: 16 g ai/ha; for pest or weed control at 31 g/ha: 31 g ai/ha; for pest or weed control at 62 g/ha: 62 g ai/ha; for pest or weed control at 125 g/ha: 125 g ai/ha
# Text: as §1, §2
# wild oat (Avena fatua) = details: scale 0 to 100, read-out: Plant response rating, Oat, Wild; for pest or weed control at 16 g/ha: 16 g ai/ha; for pest or weed control at 31 g/ha: 31 g ai/ha; for pest or weed control at 62 g/ha: 62 g ai/ha; for pest or weed control at 125 g/ha: 125 g ai/ha
# Text: as §1, §2
# [6] = system: field violet (Viola arvensis); details: scale 0 to 100, read-out: Plant response rating, Field Violet; for pest or weed control at 16 g/ha: 16 g ai/ha; for pest or weed control at 31 g/ha: 31 g ai/ha; for pest or weed control at 62 g/ha: 62 g ai/ha; for pest or weed control at 125 g/ha: 125 g ai/ha
# Text: as §1, §2
structure (smiles),measurement,setting,value
"FC(F)c1cc(-c2ccccc2Oc2ncc(Cl)cn2)no1 [Compound 35, 5-chloro-2-[2-[5-(difluoromethyl)-3-isoxazolyl]phenoxy]pyrimidine]",pest or weed control at 16 g/ha,"[1]; post-emergence, Postemergence",75%
same,pest or weed control at 31 g/ha,"[1]; post-emergence, 31 g ai/ha, Postemergence",100%
same,pest or weed control at 62 g/ha,"[1]; post-emergence, Postemergence",100%
same,pest or weed control at 125 g/ha,"[1]; post-emergence, Postemergence",100%
same,pest or weed control at 16 g/ha,"[1]; pre-emergence, Preemergence",100%
same,pest or weed control at 62 g/ha,"[1]; pre-emergence, Preemergence",100%
same,pest or weed control at 125 g/ha,"[1]; pre-emergence, Preemergence",100%
same,plant injury at 16 g/ha,"[2]; post-emergence, Postemergence",70%
same,plant injury at 31 g/ha,"[2]; post-emergence, Postemergence",80%
same,plant injury at 62 g/ha,"[2]; post-emergence, Postemergence",95%
same,plant injury at 125 g/ha,"[2]; post-emergence, Postemergence",100%
same,plant injury at 16 g/ha,"[2]; pre-emergence, Preemergence",60%
same,plant injury at 31 g/ha,"[2]; pre-emergence, Preemergence",95%
same,plant injury at 62 g/ha,"[2]; pre-emergence, Preemergence",100%
same,plant injury at 125 g/ha,"[2]; pre-emergence, Preemergence",100%
same,pest or weed control at 16 g/ha,"[3]; post-emergence, Postemergence",20%
same,pest or weed control at 31 g/ha,"[3]; post-emergence, Postemergence",35%
same,pest or weed control at 62 g/ha,"[3]; post-emergence, Postemergence",55%
same,pest or weed control at 125 g/ha,"[3]; post-emergence, Postemergence",55%
same,pest or weed control at 16 g/ha,"[3]; pre-emergence, Preemergence",5%
same,pest or weed control at 31 g/ha,"[3]; pre-emergence, Preemergence",90%
same,pest or weed control at 62 g/ha,"[3]; pre-emergence, Preemergence",90%
same,pest or weed control at 125 g/ha,"[3]; pre-emergence, Preemergence",100%
same,pest or weed control at 16 g/ha,"[4]; post-emergence, Postemergence",90%
same,pest or weed control at 31 g/ha,"[4]; post-emergence, Postemergence",85%
same,pest or weed control at 62 g/ha,"[4]; post-emergence, Postemergence",85%
same,pest or weed control at 125 g/ha,"[4]; post-emergence, Postemergence",100%
same,pest or weed control at 16 g/ha,"[4]; pre-emergence, Preemergence",20%
same,pest or weed control at 31 g/ha,"[4]; pre-emergence, Preemergence",60%
same,pest or weed control at 62 g/ha,"[4]; pre-emergence, Preemergence",95%
same,pest or weed control at 125 g/ha,"[4]; pre-emergence, Preemergence",95%
same,pest or weed control at 16 g/ha,"[5]; post-emergence, Postemergence",75%
same,pest or weed control at 31 g/ha,"[5]; post-emergence, Postemergence",85%
same,pest or weed control at 62 g/ha,"[5]; post-emergence, Postemergence",90%
same,pest or weed control at 125 g/ha,"[5]; post-emergence, Postemergence",95%
same,pest or weed control at 16 g/ha,"[5]; pre-emergence, Preemergence",60%
same,pest or weed control at 31 g/ha,"[5]; pre-emergence, Preemergence",75%
same,pest or weed control at 62 g/ha,"[5]; pre-emergence, Preemergence",90%
same,pest or weed control at 125 g/ha,"[5]; pre-emergence, Preemergence",100%
same,pest or weed control at 16 g/ha,"wild oat (Avena fatua); post-emergence, Postemergence",10%
same,pest or weed control at 31 g/ha,"wild oat (Avena fatua); post-emergence, Postemergence",15%
same,pest or weed control at 62 g/ha,"wild oat (Avena fatua); post-emergence, Postemergence",35%
same,pest or weed control at 125 g/ha,"wild oat (Avena fatua); post-emergence, Postemergence",60%
same,pest or weed control at 16 g/ha,"wild oat (Avena fatua); pre-emergence, Preemergence",0%
same,pest or weed control at 31 g/ha,"wild oat (Avena fatua); pre-emergence, Preemergence",0%
same,pest or weed control at 62 g/ha,"wild oat (Avena fatua); pre-emergence, Preemergence",45%
same,pest or weed control at 125 g/ha,"wild oat (Avena fatua); pre-emergence, Preemergence",35%
same,pest or weed control at 16 g/ha,"[6]; post-emergence, Postemergence",60%
same,pest or weed control at 31 g/ha,"[6]; post-emergence, Postemergence",65%
same,pest or weed control at 62 g/ha,"[6]; post-emergence, Postemergence",75%
same,pest or weed control at 125 g/ha,"[6]; post-emergence, Postemergence",75%
same,pest or weed control at 16 g/ha,"[6]; pre-emergence, Preemergence",15%
same,pest or weed control at 31 g/ha,"[6]; pre-emergence, Preemergence",70%
same,pest or weed control at 62 g/ha,"[6]; pre-emergence, Preemergence",90%
same,pest or weed control at 125 g/ha,"[6]; pre-emergence, Preemergence",100%
